# According to patent US20120270864A1, “2-QUINOLINONE AND 2-QUINOXALINONE-DERIVATIVES AND THEIR USE AS ANTIBACTERIAL AGENTS” (ASTRAZENECA AB, priority 2006, published 2012):
# System: Staphylococcus aureus (Sau) 516 cells
# Experiment: Bacterial Susceptibility Testing Methods 2 (microbroth dilution, growth inhibition)
# Type: cell-based
# Conditions: Staphylococcus aureus, Tested Concentration 4 μg/mL; Staphylococcus aureus 516 cell growth
# Source text: Compounds may be tested for antimicrobial activity by susceptibility testing using microbroth dilution methods recommended by CSLI. Compounds may be dissolved in dimethylsulfoxide and tested in 10 doubling dilutions in the susceptibility assays such that the final dimethylsulfoxide concentration in the assay is 2% (v/v). The Staphylococcus aureus (Sau) 516 cells used in the assay may be grown overnight on appropriate agar media and then suspended in the NCCLS-recommended liquid susceptibility-testing media. […] Plates may be incubated under appropriate conditions of atmosphere and temperature and for times according to NCCLS standard methods prior to being read. As used in Table 1 below, the term “inhibition” refers to the percentage of Staphylococcus aureus 516 cell growth that is suppressed (compared to an untreated sample) by the compound of the indicated example number. When tested in the above in-vitro assay, the compounds and salts of the example numbers listed below were tested at the indicated concentrations, providing the indicated inhibitions. In most instances, the highest concentrations at which the compounds were tested was 8 μg/mL. In some instances, however, compounds were tested at concentrations higher than 8 μg/mL, typically when the concentration was first measured in μM and was subsequently converted to μg/mL. In those cases in which compounds were tested at more than one concentration higher than 8 μg/mL, the concentration closest to 8 μg/mL is provided below.
row,SMILES,inhibition at 4 µg/mL
1,"CO[C@H]1CN(CCn2c(=O)ccc3ccc(C#N)cc32)CC[C@@H]1NCc1cc2c(cn1)OCCO2 [Example 43, 1-(2-{(3S,4S)-4-[(2,3-Dihydro[1,4]dioxino[2,3-c]pyridin-7-ylmethyl)amino]-3-methoxypiperidin-1-yl}ethyl)-2-oxo-1,2-dihydroquinoline-7-carbonitrile]",100%

# Same assay, conditions: Staphylococcus aureus, Tested Concentration 8 μg/mL; Staphylococcus aureus 516 cell growth suppressed compared to untreated sample
row,SMILES,inhibition at 8 µg/mL
1,"CO[C@H]1CN(CCn2c(=O)ccc3ccc(C#N)cc32)CC[C@H]1NCc1cc2c(cn1)OCCO2 [Example 19, 1-(2-{(3S,4R)-4-[(2,3-Dihydro[1,4]dioxino[2,3-c]pyridin-7-ylmethyl)amino]-3-methoxypiperidin-1-yl}ethyl)-2-oxo-1,2-dihydro quinoline-7-carbonitrile]",100%
2,"COc1ccc2ncc(=O)n(CCN3CC[C@@H](NCc4cc5c(cn4)OCCO5)[C@H](OC)C3)c2c1 [Example 27, 1-(2-{(3R,4R)-4-[(2,3-Dihydro[1,4]dioxino[2,3-c]pyridin-7-ylmethyl)amino]-3-methoxypiperidin-1-yl}ethyl)-7-methoxyquinoxalin-2(1H)-one]",87%
3,"CO[C@@H]1CN(CCn2c(=O)ccc3ccc(C#N)cc32)CC[C@@H]1NCc1ccc2c(n1)NC(=O)CO2 [Example 23, 1-[2-((3R,4S)-3-M ethoxy-4-{[(3-oxo-3,4-dihydro-2H-pyrido[3,2-b][1,4]oxazin-6-yl)methyl]amino}piperidin-1-yl)ethyl]-2-oxo-1,2-dihydro quino line-7-carbonitrile]",100%
4,"CO[C@H]1CN(CCn2c(=O)ccc3ccc(C#N)cc32)CC[C@H]1NCc1ccc2c(n1)NC(=O)CO2 [Example 20, 1-[2-((3S,4R)-3-M ethoxy-4-{[(3-oxo-3,4-dihydro-2H-pyrido[3,2-b][1,4]oxazin-6-yl)methyl]amino}piperidin-1-yl)ethyl]-2-oxo-1,2-dihydro quino line-7-carbonitrile]",100%
5,"COc1ccc2ncc(=O)n(CCN3CC[C@@H](NCc4ccc5c(n4)NC(=O)CO5)[C@@H](OC)C3)c2c1 [Example 15, 6-[({(3S,4R)-3-Methoxy-1-[2-(7-methoxy-2-oxoquinoxalin-1(2H)-yl)ethyl]piperidin-4-yl}amino)methyl]-2H-pyrido[3,2-b][1,4]oxazin-3 (4H)-one]",97%
6,"COc1ccc2ncc(=O)n(CCN3CC[C@H](NCc4cc5c(cn4)OCCO5)[C@H](OC)C3)c2c1 [Example 16, 1-(2-{(3R,4S)-4-[(2,3-Dihydro[1,4]dioxino[2,3-c]pyridin-7-ylmethyl)amino]-3-methoxypiperidin-1-yl}ethyl)-7-methoxyquinoxalin-2(1H)-one]",97%
7,"COc1ccc2ncc(=O)n(CCN3CC[C@H](NCc4ccc5c(n4)NC(=O)CO5)[C@H](OC)C3)c2c1 [Example 17, 6-[({(3R,4S)-3-Methoxy-1-[2-(7-methoxy-2-oxoquinoxalin-1(2H)-yl)ethyl]piperidin-4-yl}amino)methyl]-2H-pyrido[3,2-b][1,4]oxazin-3(4H)-one]",99%
8,"N#Cc1ccc2ccc(=O)n(CCN3CC[C@@H](NCc4ccc5c(n4)NC(=O)CS5)[C@@H](O)C3)c2c1 [Example 6, 1-[2-((3S,4R)-3-Hydroxy-4-{[(3-oxo-3,4-dihydro-2H-pyrido[3,2-b][1,4]thiazin-6-yl)methyl]amino}piperidin-1-yl)ethyl]-2-oxo-1,2-dihydro quino line-7-carbonitrile]",99%
9,"COc1ccc2ncc(=O)n(CCN3CC[C@H](NCc4ccc5c(n4)NC(=O)CO5)[C@H](O)C3)c2c1 [Example 8, 6-[({(3R,4S)-3-Hydroxy-1-[2-(7-methoxy-2-oxoquinoxalin-1(2H)-yl)ethyl]piperidin-4-yl}amino)methyl]-2H-pyrido[3,2-b][1,4]oxazin-3(4H)-one]",99%
10,"CO[C@H]1CN(CCn2c(=O)ccc3ccc(C#N)cc32)CC[C@@H]1NCc1cc2c(cn1)OCCO2 [Example 43, 1-(2-{(3S,4S)-4-[(2,3-Dihydro[1,4]dioxino[2,3-c]pyridin-7-ylmethyl)amino]-3-methoxypiperidin-1-yl}ethyl)-2-oxo-1,2-dihydroquinoline-7-carbonitrile]",12%
11,"CO[C@@H]1CN(CCn2c(=O)ccc3ccc(C#N)cc32)CC[C@@H]1NCc1ccc2c(n1)NC(=O)CS2 [Example 24, 1-[2-((3R,4S)-3-Methoxy-4-{[(3-oxo-3,4-dihydro-2H-pyrido[3,2-b][1,4]thiazin-6-yl)methyl]amino}piperidin-1-yl)ethyl]-2-oxo-1,2-dihydro quino line-7-carbonitrile]",100%
12,"CO[C@H]1CN(CCn2c(=O)ccc3ccc(C#N)cc32)CC[C@@H]1NCc1ccc2c(n1)NC(=O)CO2 [Example 44, 1-[2-((3S,4S)-3-Methoxy-4-{[(3-oxo-3,4-dihydro-2H-pyrido[3,2-b][1,4]oxazin-6-yl)methyl]amino}piperidin-1-yl)ethyl]-2-oxo-1,2-dihydroquinoline-7-carbonitrile]",100%
13,"COc1ccc2ncc(=O)n(CCN3CC[C@H](NCc4ccc5c(n4)NC(=O)CO5)[C@@H](OC)C3)c2c1 [Example 26, 6-[({(3S,4S)-3-Methoxy-1-[2-(7-methoxy-2-oxoquinoxalin-1(2H)-yl)ethyl]piperidin-4-yl}amino)methyl]-2H-pyrido[3,2-b][1,4]oxazin-3(4H)-one]",98%
14,"CO[C@H]1CN(CCn2c(=O)ccc3ccc(C#N)cc32)CC[C@H]1NCc1ccc2c(n1)NC(=O)CS2 [Example 21, 1-[2-((3S,4R)-3-M ethoxy-4-{[(3-oxo-3,4-dihydro-2H-pyrido[3,2-b][1,4]thiazin-6-yl)methyl]amino}piperidin-1-yl)ethyl]-2-oxo-1,2-dihydro quino line-7-carbonitrile]",100%
15,"COc1ccc2ncc(=O)n(CCN3CC[C@@H](NCc4cc5c(cn4)OCCO5)[C@@H](O)C3)c2c1 [Example 10, 1-(2-{(3S,4R)-4-[(2,3-Dihydro[1,4]dioxino[2,3-c]pyridin-7-ylmethyl)amino]-3-hydroxypiperidin-1-yl}ethyl)-7-methoxyquinoxalin-2(1H)-one]",100%
16,"N#Cc1ccc2ccc(=O)n(CCN3CC[C@@H](NCc4cc5c(cn4)OCCO5)[C@@H](O)C3)c2c1 [Example 4, 1-(2-{(3S,4R)-4-[(2,3-Dihydro[1,4]dioxino[2,3-c]pyridin-7-ylmethyl)amino]-3-hydroxypiperidin-1-yl}ethyl)-2-oxo-1,2-dihydroquinoline-7-carbonitrile]",100%
17,"COc1ccc2ncc(=O)n(CCN3CC[C@@H](NCc4cc5c(cn4)OCCO5)[C@@H](OC)C3)c2c1 [Example 14, 1-(2-{(3S,4R)-4-[(2,3-Dihydro[1,4]dioxino[2,3-c]pyridin-7-ylmethyl)amino]-3-methoxypiperidin-1-yl}ethyl)-7-methoxyquinoxalin-2(1H)-one]",100%

# Same assay, conditions: Staphylococcus aureus, Tested Concentration 9 μg/mL; Staphylococcus aureus 516 cell growth
row,SMILES,inhibition at 9 µg/mL
1,"CO[C@H]1CN(CCn2c(=O)cc(C)c3ccc(C#N)cc32)CC[C@H]1NCc1ccc2c(n1)NC(=O)CO2 [Example 51, 1-[2-((3S,4R)-3-Methoxy-4-{[(3-oxo-3,4-dihydro-2H-pyrido[3,2-b][1,4]oxazin-6-yl)methyl]amino}piperidin-1-yl)ethyl]-4-methyl-2-oxo-1,2-dihydro quino line-7-carbonitrile]",100%

# Same assay, conditions: Staphylococcus aureus, Tested Concentration 12 μg/mL; Staphylococcus aureus 516 cell growth
row,SMILES,inhibition at 12 µg/mL
1,"COc1ccc2ncc(=O)n(CCN3CCC(NCc4ccc5c(n4)NC(=O)CO5)C(F)C3)c2c1 (single isomer, unassigned) [Example 36, 6-[({3-Fluoro-1-[2-(7-methoxy-2-oxoquinoxalin-1(2H)-yl)ethyl]piperidin-4-yl}amino)methyl]-2H-pyrido[3,2-b][1,4]oxazin-3(4H)-one]",90%

# Same assay, conditions: Staphylococcus aureus, Tested Concentration 14 μg/mL; Staphylococcus aureus 516 cell growth
row,SMILES,inhibition at 14 µg/mL
1,"N#Cc1ccc2ccc(=O)n(CCN3CC[C@@H](NCc4ccc5c(n4)NC(=O)CO5)[C@@H](F)C3)c2c1 [Example 50, 1-[2-((3S,4R)-3-Fluoro-4-{[(3-oxo-3,4-dihydro-2H-pyrido[3,2-b][1,4]oxazin-6-yl)methyl]amino}piperidin-1-yl)ethyl]-2-oxo-1,2-dihydro quino line-7-carbonitrile]",100%
2,"COc1ccc2ncc(=O)n(CCN3CCC(NCc4cc5c(cn4)OCCO5)C(F)C3)c2c1 (single isomer, unassigned) [Example 35, 1-(2-{4-[(2,3-Dihydro[1,4]dioxino[2,3-c]pyridin-7-ylmethyl)amino]-3-fluoropiperidin-1-yl}ethyl)-7-methoxyquinoxalin-2(1H)-one]",100%

# Same assay, conditions: Tested Concentration 8 μg/mL; Staphylococcus aureus 516 cell growth suppressed compared to untreated sample
row,SMILES,Inhibition (%)
1,"COc1ccc2ncc(=O)n(CCN3CCC(NCc4cc5c(cn4)OCCO5)C(O)C3)c2c1 (single isomer, unassigned) [Example 31, 1-(2-{4-[(2,3-dihydro[1,4]dioxino[2,3-c]pyridin-7-ylmethyl)amino]-3-hydroxypiperidin-1-yl}ethyl)-7-methoxyquinoxalin-2(1H)-one]",87%
2,COc1ccc2ncc(=O)n(CCN3CC[C@H](NCc4ccc5c(n4)NC(=O)CS5)[C@H](OC)C3)c2c1 [Example 18],95%

# Same assay, conditions: Tested Concentration 12 μg/mL; Staphylococcus aureus 516 cell growth
row,SMILES,Inhibition (%)
1,N#Cc1ccc2ccc(=O)n(CCN3CCC(NCc4ccc5c(n4)NC(=O)CO5)C(F)C3)c2c1 (centres unmarked) [Example 34],91%

# Same assay, conditions: Tested Concentration 14 μg/mL; Staphylococcus aureus 516 cell growth
row,SMILES,Inhibition (%)
1,"COc1ccc2ncc(=O)n(CCN3CCC(NCc4cc5c(cn4)OCCO5)C(F)C3)c2c1 (single isomer, unassigned) [Example 39, 1-(2-{4-[(2,3-Dihydro[1,4]dioxino[2,3-c]pyridin-7-ylmethyl)amino]-3-fluoropiperidin-1-yl}ethyl)-7-methoxyquinoxalin-2(1H)-one]",100%
